The source of these data is patent US9255098B2, “Xanthine derivative” (Chengdu Easton Pharmaceutical Co., Ltd., priority 2012, dated 2016).

As a reminder, the IC50 is the point on the concentration scale where inhibition reaches its midpoint.

In assay [1] the target is Dipeptidyl peptidase IV (DPP-IV) (Homo sapiens (Human), UniProt P27487). Nature of the assay: DPP-IV activity inhibitory assay in vitro. It is filed as biochemical. The conditions noted are these: substrate Gly-Pro-7-amido-4-methylcoumarin, fluorescence 355/460 nm. The protocol:
2.1 Dipeptidyl peptidase IV (DPP-IV): SIGMA products, Item No. D4943-1VL.
2.3 DPP-IV buffer: containing 25 mM Hepes, 140 mM NaCl, 1% BSA, 80 mM MgCl2, of which pH was adjusted to 8.0.
2.5 Testing equipment: envision (PerkinElmer Company).
The variation of the product amount can be determined by the variation of fluorescence intensity, so as to reflect the activity level of the enzyme.
The dipeptidyl peptidase IV (DPP-IV), DPP-IV buffer and test samples were used to construct the reaction system of 200 μL, while the blank control (without enzyme and samples) and negative control (without samples) having the same volume were set up. […] Inhibition ratio was calculated according to the fluorescence intensity F value, inhibition ratio=[1−(Fsample−Fblank)/(Fnegative−Fblank)]×100. […] According to inhibition ratio, 4 Parameter Logistic Model in Xlfit software was applied to calculate IC50.

For the next assay, the system named is normal KM mice. In words: Impact on glucose tolerance in normal mice. In kind it is in vivo. The conditions noted are these: for blood glucose at 30 min after glucose loaded / blood glucose at 60 min after glucose loaded / blood glucose at 120 min after glucose loaded / Fasting blood glucose: normal KM mice, x ± SD; for blood glucose at 30 min after glucose loaded / blood glucose at 60 min after glucose loaded / blood glucose at 120 min after glucose loaded / blood glucose value compared with the positive drug (Linagliptin) / blood glucose levels compared with the blank group: 3 mg/kg i.g; for blood glucose at 30 min after glucose loaded / blood glucose at 60 min after glucose loaded / blood glucose at 120 min after glucose loaded: glucose 8 g/kg i.g 30 min after drug; for Fasting blood glucose: fasted, before administration (baseline), group dosed 3 mg/kg i.g; for blood glucose value compared with the positive drug (Linagliptin) / blood glucose levels compared with the blank group: normal mice, at 30, 60 and 120 min after glucose loaded; for blood glucose levels compared with the blank group: P<0.01. The protocol: KM mice, 6 weeks old, weighing 18˜22 g, half male and half female, 60 mice, provided by Chengdu Dashuo Biological Technology Co., Ltd., Production license: SCXK (Chuan) 2008-24. Animals were housed in the animal room after purchased, adaptively observed for at least three days, and used for assays […] they were qualified for the quarantine standard.
(§1) 2.1 Animals were fasted for at least 12 hours before starting the assay;
2.2 Grouping: fasting blood glucose values of the fasted mice were measured, and the mice were randomly grouped according to Table 1, with no significant difference between the groups;
Animals in each group were administrated with corresponding investigational compounds according the Table 1 by intragastric administration (i.g), then administrated with glucose (8 g/kg) respectively by intragastric administration at 30 min after administrating drugs, and the blood glucose values thereof were measured respectively at 30 min, 60 min and 120 min after administrating the glucose (glucose loaded).
(§2) Excel was used for statistics, experimental data were expressed as ( x±SD), and two-sided T-test method was used to statistically compare the experimental data among multiple groups.

Assay [2] relates to Type II spontaneous diabetic KKAy obese mice. In words: Impact on blood glucose in spontaneous diabetic mice. It is filed as in vivo. The conditions noted are these: for blood glucose at 30 min after glucose loaded / blood glucose at 60 min after glucose loaded / blood glucose at 120 min after glucose loaded: glucose 8 g/kg i.g 30 min after drug; for blood glucose at 30 min after glucose loaded / blood glucose at 60 min after glucose loaded / blood glucose at 120 min after glucose loaded / Fasting blood glucose: x ± SD; for Fasting blood glucose: fasted, before administration (baseline), group dosed 3 mg/kg i.g. The protocol: Type II spontaneous diabetic KKAy obese mice, 60 mice, 14 weeks old, half male and half female, purchased from Institute of Laboratory Animal Science, Chinese Academy of Medical Sciences (Qualified number: SCXK (Jing) 2009-0004). Animals were housed in the animal room after purchased, adaptively observed for at least three days, and used for assays […] they were qualified for the quarantine standard.
as §1
2.2 Fasting blood glucose values of the fasted mice were measured by ACCU-CHEK active glucose test strips, and the mice were randomly grouped according to Table 3. In addition, the C57BL/6J mice were used for the blank control group, while the type II spontaneous diabetic KKAy mice were used for the model group.
Animals in each group were administrated with corresponding investigational compounds according Table 3 by intragastric administration (i.g), then administrated with glucose (8 g/kg) respectively by intragastric administration at 30 min after administrating drugs, and the blood glucose values thereof were measured respectively at 30 min, 60 min and 120 min after administrating the glucose (glucose loaded).
as §2

Structures can show the parent of a compound that is named as a salt.

Sequence of Dipeptidyl peptidase IV (DPP-IV) (P27487 whole entry): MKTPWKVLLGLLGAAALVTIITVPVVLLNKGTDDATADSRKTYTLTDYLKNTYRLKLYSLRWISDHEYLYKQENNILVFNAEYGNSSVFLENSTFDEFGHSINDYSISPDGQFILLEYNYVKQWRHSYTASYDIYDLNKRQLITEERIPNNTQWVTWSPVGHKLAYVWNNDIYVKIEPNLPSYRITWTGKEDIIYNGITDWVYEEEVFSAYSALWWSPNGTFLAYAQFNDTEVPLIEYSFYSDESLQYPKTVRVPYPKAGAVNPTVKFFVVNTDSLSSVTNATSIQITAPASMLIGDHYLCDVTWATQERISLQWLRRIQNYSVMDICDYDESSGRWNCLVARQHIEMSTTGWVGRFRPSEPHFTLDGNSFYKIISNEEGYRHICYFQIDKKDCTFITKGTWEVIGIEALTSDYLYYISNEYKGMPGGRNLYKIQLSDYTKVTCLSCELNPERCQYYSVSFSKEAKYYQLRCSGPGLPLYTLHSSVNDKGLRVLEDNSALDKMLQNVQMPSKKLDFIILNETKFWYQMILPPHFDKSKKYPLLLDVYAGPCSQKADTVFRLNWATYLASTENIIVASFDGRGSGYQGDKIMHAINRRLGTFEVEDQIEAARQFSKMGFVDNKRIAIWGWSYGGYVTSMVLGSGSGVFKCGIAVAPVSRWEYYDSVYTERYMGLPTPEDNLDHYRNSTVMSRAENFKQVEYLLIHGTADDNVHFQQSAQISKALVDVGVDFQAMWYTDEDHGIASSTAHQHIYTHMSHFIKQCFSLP

For `CC#CCn1c(N2CCC[C@@H](N)C2)nc2c1c(=O)n(Cc1nc3ccccc3s1)c(=O)n2C` [Ex. 5, 1-[(1,3-benzothiazol-2-yl)methyl]-3-methyl-7-(2-butyn-1-yl)-8-[(R)-3-amino-piperidin-1-yl]-xanthine hydrochloride], it took 0.15 nM to reach half-maximal inhibition in assay [1] (hydrochloride) (IC50).
In turn, `CC#CCn1c(N2CCC[C@@H](N)C2)nc2c1c(=O)n(Cc1nc3cc(Cl)ccc3s1)c(=O)n2C` [Ex. 3, 1-[(5-chloro-1,3-benzothiazol-2-yl)methyl]-3-methyl-7-(2-butyn-1-yl)-8-[(R)-3-amino-piperidin-1-yl]-xanthine] returned an IC50 in assay [1] of 0.2 nM. Further, in the assay with normal KM mice, the “blood glucose at 30 min after glucose loaded” value (“blood glucose at 30 min” below) is reported as 15.61 ± 1.10 mmol/L, the “blood glucose at 60 min after glucose loaded” value (shortened to “blood glucose at 60 min”) amounted to 13.49 ± 1.31 mmol/L, the “blood glucose at 120 min after glucose loaded” value (“blood glucose at 120 min” for short) was 8.90 ± 1.26 mmol/L and the Fasting blood glucose is on record as 7.19 ± 1.04 mmol/L. Further, in the assay on normal KM mice, the “blood glucose value compared with the positive drug (Linagliptin)” value was “significantly decreased” and the “blood glucose levels compared with the blank group” value is reported as “extremely significantly decrease”. In addition, in assay [2] (3 mg/kg i.g), the “blood glucose value compared with the positive drug Linagliptin at 30 min after glucose loaded” value is recorded as “significantly decreased”, the “blood glucose at 30 min” value is 15.86 ± 1.04^▴▴★ mmol/L, the “blood glucose at 60 min” value was 11.28 ± 1.67^▴▴★ mmol/L and the “blood glucose at 120 min” value was determined as 10.73 ± 1.46 mmol/L. In assay [2], this compound registered a Fasting blood glucose of 9.15 ± 0.61 mmol/L.
In the case of `CC#CCn1c(N2CCC[C@@H](N)C2)nc2c1c(=O)n(Cc1nc3ccccc3s1)c(=O)n2C` [Ex. 2, 1-[(1,3-benzothiazol-2-yl)methyl]-3-methyl-7-(2-butyn-1-yl)-8-[(R)-3-amino-piperidin-1-yl]-xanthine], the IC50 in assay [1] came to 0.1 nM. Moreover, in the assay on normal KM mice, the “blood glucose at 30 min” value came to 15.59 ± 2.04 mmol/L, the “blood glucose at 60 min” value is recorded as 12.78 ± 1.97 mmol/L, the “blood glucose at 120 min” value is listed as 8.96 ± 1.16 mmol/L and the Fasting blood glucose turned out to be 7.43 ± 1.32 mmol/L. In the assay on normal KM mice, the “blood glucose value compared with the positive drug (Linagliptin)” value is reported as “significantly decreased” and the “blood glucose levels compared with the blank group” value is given as “extremely significantly decrease”. Besides, in assay [2] (3 mg/kg i.g), the “blood glucose value compared with the positive drug Linagliptin at 30 min after glucose loaded” value is recorded as “significantly decreased”, the “blood glucose at 30 min” value was 15.59 ± 1.23^▴▴★ mmol/L, the “blood glucose at 60 min” value is on record as 11.41 ± 1.58^▴▴★ mmol/L and the “blood glucose at 120 min” value was 10.81 ± 1.37 mmol/L. Besides, the Fasting blood glucose in assay [2] is reported as 9.07 ± 0.67 mmol/L.
For the compound `CC#CCn1c(N2CCC[C@@H](N)C2)nc2c1c(=O)n(Cc1nc3cc(F)ccc3s1)c(=O)n2C.Cl` [Ex. 4, 1-[(5-fluoro-1,3-benzothiazol-2-yl)methyl]-3-methyl-7-(2-butyn-1-yl)-8-[(R)-3-amino-piperidin-1-yl]-xanthine hydrochloride], in the assay on normal KM mice, the “blood glucose at 30 min” value came out at 15.50 ± 1.94 mmol/L, the “blood glucose at 60 min” value is listed as 12.75 ± 1.43 mmol/L, the “blood glucose at 120 min” value turned out to be 8.91 ± 0.98 mmol/L and the Fasting blood glucose was found to be 7.25 ± 0.98 mmol/L. Also, in the assay with normal KM mice, the “blood glucose value compared with the positive drug (Linagliptin)” value is reported as “significantly decreased” and the “blood glucose levels compared with the blank group” value was “extremely significantly decrease”. Moreover, in assay [2] (3 mg/kg i.g), the “blood glucose value compared with the positive drug Linagliptin at 30 min after glucose loaded” value is listed as “significantly decreased”, the “blood glucose at 30 min” value is reported as 15.60 ± 1.30^▴▴★ mmol/L, the “blood glucose at 60 min” value was 11.45 ± 1.60^▴▴★ mmol/L and the “blood glucose at 120 min” value amounted to 10.75 ± 1.20 mmol/L. Further, the Fasting blood glucose in assay [2] amounted to 9.17 ± 0.58 mmol/L.
With `CC#CCn1c(N2CCC[C@@H](N)C2)nc2c1c(=O)n(Cc1nc(C)c3ccccc3n1)c(=O)n2C` [Linagliptin, reference compound], in the assay on normal KM mice, the “blood glucose at 30 min” value is recorded as 17.07 ± 1.83 mmol/L, the “blood glucose at 60 min” value came out at 14.98 ± 1.66 mmol/L, the “blood glucose at 120 min” value came out at 9.96 ± 0.89 mmol/L and the Fasting blood glucose came out at 7.13 ± 0.86 mmol/L. Also, in the assay with normal KM mice, the “blood glucose levels compared with the blank group” value was “extremely significantly decrease”. Moreover, the “blood glucose levels compared with the model group” value in assay [2] (3 mg/kg i.g, at 30, 60 and 120 min after glucose loaded, P<0.01) was “extremely significantly decrease”. In assay [2] (3 mg/kg i.g), the “blood glucose at 30 min” value came to 17.14 ± 1.45 mmol/L, the “blood glucose at 60 min” value was determined as 13.10 ± 1.38 mmol/L and the “blood glucose at 120 min” value was found to be 11.27 ± 1.43 mmol/L. The same compound had a Fasting blood glucose in assay [2] of 9.09 ± 0.53 mmol/L.
`CC#CCn1c(N2CCC[C@@H](N)C2)nc2c1c(=O)n(Cc1nc3cc(F)ccc3s1)c(=O)n2C` [Ex. 1, 1-[(5-fluoro-1,3-benzothiazol-2-yl)methyl]-3-methyl-7-(2-butyn-1-yl)-8-[(R)-3-amino-piperidin-1-yl]-xanthine]: in the assay with normal KM mice, the “blood glucose at 30 min” value is listed as 15.02 ± 1.99 mmol/L, the “blood glucose at 60 min” value is given as 12.61 ± 1.98 mmol/L, the “blood glucose at 120 min” value came to 8.79 ± 0.88 mmol/L and the Fasting blood glucose is 7.27 ± 0.74 mmol/L. In the assay with normal KM mice, the “blood glucose value compared with the positive drug (Linagliptin)” value was “extremely significantly decreased” and the “blood glucose levels compared with the blank group” value is “extremely significantly decrease”. For the same compound, in assay [2] (3 mg/kg i.g), the “blood glucose value compared with the positive drug Linagliptin at 30 min after glucose loaded” value is given as “extremely significantly decreased”, the “blood glucose at 30 min” value is recorded as 14.98 ± 1.53^▴▴★★ mmol/L, the “blood glucose at 60 min” value was 11.10 ± 2.45^▴▴★ mmol/L and the “blood glucose at 120 min” value is 9.97 ± 1.28 mmol/L. Moreover, the Fasting blood glucose in assay [2] was 9.29 ± 0.71 mmol/L.
